Values quoted from earlier work, collected in patent publication US20020090388A1, “Intravascular drug delivery device and use therefor” (priority 2000, published 2002).

System: primary pulmonary hypertension
Conditions: patients with primary pulmonary hypertension

Structure (SMILES): CC#CCC(C)[C@H](O)/C=C/[C@@H]1[C@H]2C/C(=C/CCCC(=O)O)C[C@H]2C[C@H]1O (stereo partly shown) [Iloprost]
- mean level of dose required to provide significant therapeutic benefits: 2.1 ng/kg/min
